ChEMBL document CHEMBL1201861, “Genomics of Drug Sensitity in Cancer screening data, Wellcome Trust Sanger Institute”

Columns and labels:
Experiment in all cases: cells
BPH-1 = format: functional, cell-based, Homo sapiens; conditions: Homo sapiens, BPH-1;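 also: cell viability assay measuring growth inhibition of human BPH-1 cells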
Description: SANGER: Inhibition of human BPH-1 cell growth in a cell viability assay.

MKN-7 = format: functional, cell-based, Homo sapiens; conditions: Homo sapiens, MKN-7;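 also: growth inhibition of MKN-7 cells, read out with a cell viability assay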
Description: SANGER: Inhibition of human MKN7 cell growth in a cell viability assay.

AN3-CA = format: functional, cell-based; conditions: Homo sapiens;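 also: growth inhibition of human AN3-CA cells measured by a cell viability assay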
Description: SANGER: Inhibition of human AN3-CA cell growth in a cell viability assay.

BCPAP = format: functional, cell-based, Homo sapiens; conditions: Homo sapiens, BCPAP;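 also: growth inhibition of BCPAP cells, read out in a cell viability assay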
Description: SANGER: Inhibition of human BCPAP cell growth in a cell viability assay.

LS-1034 = format: functional, cell-based, Homo sapiens; conditions: Homo sapiens, LS-1034
Description: SANGER: Inhibition of human LS-1034 cell growth in a cell viability assay.

U-118-MG = format: functional, cell-based, Homo sapiens; conditions: Homo sapiens, U-118-MG
Description: SANGER: Inhibition of human U-118-MG cell growth in a cell viability assay.

SiHa = format: functional, cell-based, Homo sapiens; conditions: Homo sapiens, SiHa;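 also: Viability-based readout of growth inhibition in SiHa cells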
Description: SANGER: Inhibition of human SiHa cell growth in a cell viability assay.

U-266 = format: functional, cell-based; conditions: Homo sapiens
Description: SANGER: Inhibition of human U-266 cell growth in a cell viability assay.

C3A = format: functional, cell-based, Homo sapiens; conditions: Homo sapiens, C3A;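 also: growth inhibition of C3A human cells, quantified with a cell viability readout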
Description: SANGER: Inhibition of human C3A cell growth in a cell viability assay.

M14 = format: functional, cell-based, Homo sapiens; conditions: Homo sapiens, M14;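 also: growth inhibition of M14 cells, read out with a cell viability assay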
Description: SANGER: Inhibition of human M14 cell growth in a cell viability assay.

KYSE-70 cell line = format: functional, cell-based, Homo sapiens; conditions: Homo sapiens, KYSE-70;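 also: cell viability assay read-out, with IC50 expressing suppression of KYSE-70 cell growth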
Description: SANGER: Inhibition of human KYSE-70 cell growth in a cell viability assay.

SW1088 = format: functional, cell-based, Homo sapiens; conditions: Homo sapiens, SW1088;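 also: growth inhibition of human SW1088 cells, read out by a cell viability assay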
Description: SANGER: Inhibition of human SW1088 cell growth in a cell viability assay.

NCI-H446 = format: functional, cell-based; conditions: Homo sapiens;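 also: growth inhibition of NCI-H446 cells determined by a cell viability assay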
Description: SANGER: Inhibition of human NCI-H446 cell growth in a cell viability assay.

A-427 = format: functional, cell-based, Homo sapiens; conditions: Homo sapiens, A-427;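 also: growth inhibition of human A-427 cells, read out by a cell viability assay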
Description: SANGER: Inhibition of human A427 cell growth in a cell viability assay.

PA-1 = format: functional, cell-based, Homo sapiens; conditions: Homo sapiens, PA-1;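 also: IC50 for suppression of PA-1 cell proliferation, determined with a cell viability read-out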
Description: SANGER: Inhibition of human PA-1 cell growth in a cell viability assay.

GCIY = format: functional, cell-based, Homo sapiens; conditions: Homo sapiens, GCIY;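 also: growth inhibition of the human GCIY cell line, read out by a cell viability assay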
Description: SANGER: Inhibition of human GCIY cell growth in a cell viability assay.

LU-134-A = format: functional, cell-based; conditions: Homo sapiens
Description: SANGER: Inhibition of human LU-134-A cell growth in a cell viability assay.

SW948 = format: functional, cell-based, Homo sapiens; conditions: Homo sapiens, SW948;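 also: growth inhibition of SW948 cells, read out with a cell viability assay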
Description: SANGER: Inhibition of human SW948 cell growth in a cell viability assay.

KYSE-410 = format: functional, cell-based, Homo sapiens; conditions: Homo sapiens, KYSE-410;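 also: growth inhibition of KYSE-410 cells, measured through a cell viability readout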
Description: SANGER: Inhibition of human KYSE-410 cell growth in a cell viability assay.

CaR-1 = format: functional, cell-based, Homo sapiens; conditions: Homo sapiens, CaR-1;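 also: growth inhibition of human CaR-1 cancer cells, read out with a cell viability assay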
Description: SANGER: Inhibition of human CaR-1 cell growth in a cell viability assay.

TCC-SUP = format: functional, cell-based, Homo sapiens; conditions: Homo sapiens, TCC-SUP;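 also: growth inhibition of TCC-SUP cells, read out with a cell viability assay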
Description: SANGER: Inhibition of human TCCSUP cell growth in a cell viability assay.

RERF-LC-MS = format: functional, cell-based, Homo sapiens; conditions: Homo sapiens, RERF-LC-MS;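 also: growth inhibition of human RERF-LC-MS cells, read out by a cell viability assay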
Description: SANGER: Inhibition of human RERF-LC-MS cell growth in a cell viability assay.

UO-31 = format: functional, cell-based; conditions: Homo sapiens;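 also: cell viability assay measuring inhibition of cell growth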
Description: SANGER: Inhibition of human U031 cell growth in a cell viability assay.

KINGS-1 = format: functional, cell-based, Homo sapiens; conditions: Homo sapiens, KINGS-1;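 also: cell viability assay measuring suppression of KINGS-1 cell growth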
Description: SANGER: Inhibition of human KINGS-1 cell growth in a cell viability assay.

PFSK-1 = format: functional, cell-based, Homo sapiens; conditions: Homo sapiens, PFSK-1;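 also: cell viability assay measuring how strongly compounds suppress growth of human PFSK-1 cells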
Description: SANGER: Inhibition of human PFSK-1 cell growth in a cell viability assay.

MDA-MB-175-VII = format: functional, cell-based, Homo sapiens; conditions: Homo sapiens, MDA-MB-175-VII
CAL-120 = format: functional, cell-based, Homo sapiens; conditions: Homo sapiens, CAL-120;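 also: cell growth inhibition, read out as cell viability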
Description: SANGER: Inhibition of human CAL-120 cell growth in a cell viability assay.

MKN-1 = format: functional, cell-based, Homo sapiens; conditions: Homo sapiens, MKN-1;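 also: growth inhibition of human MKN1 cells, read out by a cell viability measurement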
Description: SANGER: Inhibition of human MKN1 cell growth in a cell viability assay.

C32 = format: functional, cell-based, Homo sapiens; conditions: Homo sapiens, C32;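 also: cell viability assay, with IC50 reflecting inhibition of C32 cell growth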
Description: SANGER: Inhibition of human C32 cell growth in a cell viability assay.

RT-112 = format: functional, cell-based, Homo sapiens; conditions: Homo sapiens, RT-112
Description: SANGER: Inhibition of human RT-112 cell growth in a cell viability assay.

MDA-MB-415 = format: functional, cell-based; conditions: Homo sapiens
NCI-H1838 = format: functional, cell-based, Homo sapiens; conditions: Homo sapiens, NCI-H1838;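 also: growth inhibition of NCI-H1838 cells, determined with a cell viability readout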
Description: SANGER: Inhibition of human NCI-H1838 cell growth in a cell viability assay.

SK-N-DZ = format: functional, cell-based, Homo sapiens; conditions: Homo sapiens, SK-N-DZ;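 also: growth inhibition of the cancer cell line, read out through a viability assay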
Description: SANGER: Inhibition of human SK-N-DZ cell growth in a cell viability assay.

BB65-RCC = format: functional, cell-based, Homo sapiens; conditions: Homo sapiens, BB65-RCC;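 also: growth inhibition of the cell line, measured with a cell viability assay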
Description: SANGER: Inhibition of human BB65-RCC cell growth in a cell viability assay.

BB49-HNC = format: functional, cell-based, Homo sapiens; conditions: Homo sapiens, BB49-HNC;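 also: cell viability assay read-out, reported as inhibition of BB49-HNC cell growth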
Description: SANGER: Inhibition of human BB49-HNC cell growth in a cell viability assay.

LB2518-MEL = format: functional, cell-based, Homo sapiens; conditions: Homo sapiens, LB2518-MEL;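 also: growth inhibition of human LB2518-MEL cells, measured with a cell viability assay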
Description: SANGER: Inhibition of human LB2518-MEL cell growth in a cell viability assay.

NB10 = format: functional, cell-based, Homo sapiens; conditions: Homo sapiens, NB10;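 also: growth inhibition of NB10 cells, read out by a cell viability assay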
Description: SANGER: Inhibition of human NB10 cell growth in a cell viability assay.

NCI-H526 = format: functional, cell-based; conditions: Homo sapiens;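 also: growth inhibition of the human NCI-H526 cell line, measured by a cell viability assay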
Description: SANGER: Inhibition of human NCI-H526 cell growth in a cell viability assay.

LoVo = format: functional, cell-based; conditions: Homo sapiens;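 also: growth inhibition of human LoVo cells, read out with a cell viability assay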
Description: SANGER: Inhibition of human LoVo cell growth in a cell viability assay.

IST-MEL1 = format: functional, cell-based, Homo sapiens; conditions: Homo sapiens, IST-MEL1;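 also: growth inhibition of the cell line, read out with a cell viability assay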
Description: SANGER: Inhibition of human IST-MEL1 cell growth in a cell viability assay.

786-0 = format: functional, cell-based, Homo sapiens; conditions: Homo sapiens
Description: SANGER: Inhibition of human 786-0 cell growth in a cell viability assay.

J82 = format: functional, cell-based; conditions: Homo sapiens;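 also: growth inhibition of J82 cells, read out with a cell viability assay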
Description: SANGER: Inhibition of human J82 cell growth in a cell viability assay.

SCC-15 = format: functional, cell-based, Homo sapiens; conditions: Homo sapiens, SCC-15;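 also: growth inhibition of SCC-15 cells, read out with a cell viability assay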
Description: SANGER: Inhibition of human SCC-15 cell growth in a cell viability assay.

Lu-65 = format: functional, cell-based; conditions: Homo sapiens;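 also: growth inhibition of Lu-65 cancer cells, read out by a cell viability assay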
Description: SANGER: Inhibition of human LU-65 cell growth in a cell viability assay.

LCLC-97TM1 = format: functional, cell-based, Homo sapiens; conditions: Homo sapiens, LCLC-97TM1;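 also: cell viability assay measuring growth inhibition of human LCLC-97TM1 cells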
Description: SANGER: Inhibition of human LCLC-97TM1 cell growth in a cell viability assay.

MN-60 = format: functional, cell-based; conditions: Homo sapiens;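 also: growth inhibition of the MN-60 cell line, determined with a cell viability assay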
Description: SANGER: Inhibition of human MN-60 cell growth in a cell viability assay.

CHP-212 = format: functional, cell-based, Homo sapiens; conditions: Homo sapiens, CHP-212
Description: SANGER: Inhibition of human CHP-212 cell growth in a cell viability assay.

L-428 = format: functional, cell-based; conditions: Homo sapiens
Description: SANGER: Inhibition of human L-428 cell growth in a cell viability assay.

BT-474 = format: functional, cell-based, Homo sapiens; conditions: Homo sapiens, BT-474
Description: SANGER: Inhibition of human BT-474 cell growth in a cell viability assay.

A498 = format: functional, cell-based, Homo sapiens; conditions: Homo sapiens, A498;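 also: growth inhibition of human A498 cells, read out with a cell viability assay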
Description: SANGER: Inhibition of human A498 cell growth in a cell viability assay.

DB = format: functional, cell-based; conditions: Homo sapiens
Description: SANGER: Inhibition of human DB cell growth in a cell viability assay.

With `CN(Cc1cnc2nc(N)nc(N)c2n1)c1ccc(C(=O)N[C@@H](CCC(=O)O)C(=O)O)cc1` [METHOTREXATE] the IC50 (BPH-1) was > 200 nM, the IC50 (MKN-7) was > 200 nM and the IC50 (AN3-CA) was > 200 nM. For the same compound, the IC50 (BCPAP) was 43.1 nM, the IC50 (LS-1034) was > 200 nM and the IC50 (U-118-MG) was > 200 nM. For the same compound, the IC50 (SiHa) was > 200 nM, the IC50 (U-266) was > 200 nM and the IC50 (C3A) was > 200 nM. For the same compound, the IC50 (M14) was > 200 nM, the IC50 (KYSE-70 cell line) was > 200 nM and the IC50 (SW1088) was > 200 nM. For the same compound, the IC50 (NCI-H446) was > 200 nM, the IC50 (A-427) was > 200 nM and the IC50 (PA-1) was > 200 nM. The IC50 (GCIY) was > 200 nM, the IC50 (LU-134-A) was 88.7 nM and the IC50 (SW948) was > 200 nM. The IC50 (KYSE-410) was > 200 nM, the IC50 (CaR-1) was > 200 nM and the IC50 (TCC-SUP) was > 200 nM. For the same compound, the IC50 (RERF-LC-MS) was > 200 nM, the IC50 (UO-31) was > 200 nM and the IC50 (KINGS-1) was > 200 nM. The IC50 (PFSK-1) was > 200 nM, the IC50 (MDA-MB-175-VII) was > 200 nM and the IC50 (CAL-120) was > 200 nM. For the same compound, the IC50 (MKN-1) was > 200 nM, the IC50 (C32) was > 200 nM and the IC50 (RT-112) was 142 nM. For the same compound, the IC50 (MDA-MB-415) was > 200 nM, the IC50 (NCI-H1838) was > 200 nM and the IC50 (SK-N-DZ) was > 200 nM. The IC50 (BB65-RCC) was > 200 nM, the IC50 (BB49-HNC) was > 200 nM and the IC50 (LB2518-MEL) was > 200 nM. For the same compound, the IC50 (NB10) was > 200 nM, the IC50 (NCI-H526) was 0.691 nM and the IC50 (LoVo) was > 200 nM. For the same compound, the IC50 (IST-MEL1) was 126 nM, the IC50 (786-0) was > 200 nM and the IC50 (J82) was > 200 nM. The IC50 (SCC-15) was > 200 nM, the IC50 (Lu-65) was > 200 nM and the IC50 (LCLC-97TM1) was > 200 nM. For the same compound, the IC50 (MN-60) was 65.7 nM, the IC50 (CHP-212) was > 200 nM and the IC50 (L-428) was > 200 nM. The IC50 (BT-474) was > 200 nM, the IC50 (A498) was > 200 nM and the IC50 (DB) was 21.3 nM.
